Test results as given in patent US8754057B2, “Inhibition of apoptosis-specific eIF-5A(eIF-5A1″) with antisense oligonucleotides and siRNA as anti-inflammatory therapeutics” (Senesco Technologies, Inc., priority 2003, dated 2014).
*1 amine or outer side, *2 acyl side, *3 side chain or, on linkers, in order; H or OH if unused. Where a SMILES comes first, the peptide text is derived from it. Bridges are numbered along the chain shown (N, C = ends). Roman numbers before positions name the chains, in order. [ ]: non-standard residue; d: D form. Actinocin(9to1) = Cc1c2oc3c(C)ccc(C(=O)[*:1])c3nc-2c(C(=O)[*:2])c(N)c1=O; NMeV = CN[C@H](C(=O)O)C(C)C; Sar = CNCC(=O)O

Experiments:
Assay type in all cases: cell-based, human
[1] = system: apoptosis-specific eIF-5A; test: Western blot of HT-29 cells treated with IFN gamma; settings: at 8 hours
Protocol: FIG. 81 is a western blot of HT-29 cells treated with IFN gamma for 8 and 24 hours.
Priming the cells with interferon gamma prior to TNF treatment causes the cells to produce more IL-8 than either treatment alone. This may be due to the known upregulation of the TNF receptor 1 in response to interferon, so ‘priming’ the cells with interferon allows them to respond to TNF better since the cells have more receptors. siRNA against apoptosis-specific eIF-5A had no effect on IL-8 production in response to TNF alone (previous experiment) however, the siRNA blocked almost all IL-8 produced in response to interferon as well as a significant amount of the IL-8 produced as a result of the combined treatment of interferon and TNF. […] FIG. 81 is a western showing up-regulation (4 fold at 8 hours) of apoptosis-specific eIF-5A in response to interferon gamma in HT-29 cells.

[2] = system: lamina cribrosa cell line #506; test: Hoescht staining apoptosis of siRNA-transfected lamina cribrosa cells treated with TNF-α and camptothecin; settings: LC #506, 72 h after siRNA transfection, 24 h 10 ng/ml TNF-α plus 50 μM camptothecin
Protocol: Lamina cribrosa cell line #506 cells were seeded at 7500 cells per well onto an 8-well culture slide. Three days later the LC cells were transfected with either GAPDH siRNA, apoptosis-specific eIF-5A siRNAs #1-4 (SEQ ID NO:30-33), or control siRNA #5 (SEQ ID NO:34). 72 hours after transfection, the transfected cells were treated with 10 ng/ml TNF-α plus 50 μM camptothecin. Twenty-four hours later the cells were stained with Hoescht 33258 and viewed by fluorescence microscopy using a UV filter. Cells with brightly stained condensed or fragmented nuclei were counted as apoptotic. This graph represents the average of n=4 independent experiments.
Following transfection, RKO and lamina cribrosa cells were incubated for 72 hours prior to collection of cellular extract for Western blot analysis. In order to determine the effectiveness of the siRNAs directed against apoptosis-specific eIF-5A to block apoptosis, lamina cribrosa cells were treated with 50 μM of camptothecin (Sigma) and 10 ng/ml of TNF-α (Leinco Technologies) to induce apoptosis either 48 or 72 hours after transfection. The cells were stained with Hoescht either 24 or 48 hours later in order to determine the percentage of cells undergoing apoptosis.
Small inhibitory RNAs (siRNAs) directed against human apoptosis-specific eIF-5A were used to specifically suppress expression of eIF5A in lamina cribrosa cells. Six siRNAs were generated by in vitro transcription using the Silencer™ siRNA Construction Kit (Ambion Inc.), Four siRNAs were generated against human apoptosis-specific eIF-5A (siRNAs #1 to #4). […] The siRNAs were generated according to the manufacturer's protocol. The eIF5A and control siRNA targets had the following sequences: siRNA #1 5′ […] 3′ (SEQ ID NO: 81); siRNA #2 5′ […] 3′ (SEQ ID NO: 82); siRNA #3 5′ […] 3′ (SEQ ID NO: 83); siRNA #4 5′ […] 3′ (SEQ ID NO: 84); siRNA #5′ […] 3′ (SEQ ID NO: 85). Lamina cribrosa cells were transfected with siRNA using LipofectAMINE 2000.
Lamina cribrosa cells were transfected when cell confluence was at 40 to 70% and were generally seeded onto 8-well culture slides at 7500 cells per well three days prior to transfection. Transfection medium sufficient for one well of an 8-well culture slide was prepared by diluting 25.5 proles of siRNA to a final volume of 21.2 μl in Opti-Mem (Sigma). 0.425 μl of Lipofectamine 2000 was diluted to a final volume of 21.2 μl in Opti-Mem and incubated for 7 to 10 minutes at room temperature. The diluted Lipofectamine 2000 mixture was then added to the diluted siRNA mixture and incubated together at room temperature for 20 to 30 minutes, The cells were washed once with serum-free media before adding 135 μl of serum-free media to the cells and overlaying 42.4 μl of transfection medium. […]

[3] = system: lamina cribrosa cell line #506; test: TUNEL labeling of siRNA-transfected LC cells treated with TNF-α and camptothecin; settings: LC #506, TNF-α and camptothecin 24 h
Protocol: Lamina cribrosa cell line #506 cells were seeded at 7500 cells per well onto an 8-well culture slide. Three days later the LC cells were transfected with either apoptosis-specific eIF-5A siRNA #1 (SEQ ID NO:30) or control siRNA #5 (SEQ ID NO:34). 72 hours after transfection, the transfected cells were treated with 10 ng/ml TNF-α plus 50 μM camptothecin. Twenty-four hours later the cells were stained with Hoescht 33258 and DNA fragmentation was evaluated in situ using the terminal deoxynucleotidyl transferase-mediated dUTP-digoxigenin nick end labeling (TUNEL) method. Panel A represents the slide observed by fluorescence microscopy using a fluorescein filter to visualize TUNEL-labeling of the fragmented DNA of apoptotic cells. Panel B represents the same slide observed by through a UV filter to visualize the Hoescht-stained nuclei. The results are representative of two independent experiments. All pictures were taken at 400 times magnification.
Transfected cells that had been treated with TNF-α and camptothecin for 24 hours were stained with Hoescht 33258 in order to determine the percentage of cells undergoing apoptosis. Briefly, cells were fixed with a 3:1 mixture of absolute methanol and glacial acetic acid and then incubated with Hoescht stain (0.5 μg/ml Hoescht 33258 in PBS). After a 10 minute incubation in the dark, the staining solution was discarded, the chambers separating the wells of the culture slide were removed, and the slide was washed 3 times for 1 minute with deionized water. After washing, a few drops of Mcllvaine's buffer (0.021 M citric acid, 0.058 M Na2HPO4.7H2O; pH 5.6) was added to the cells and overlaid with a coverslip. The stained cells were viewed under a fluorescent microscope using a UV filter. Cells with brightly stained or fragmented nuclei were scored as apoptotic. A minimum of 200 cells were counted per well. The DeadEnd™ Fluorometric TUNEL (Promega) was also used to detect the DNA fragmentation that is a characteristic feature of apoptotic cells. Following Hoescht staining, the culture slide was washed briefly with distilled water, and further washed by immersing the slide twice for 5 minutes in PBS (137 mM NaCl, 2.68 mM KCl, 1.47 mM KH2PO4, 8.1 mM Na2HPO4), blotting the slide on paper towel between washes. The cells were permeabilized by immersing them in 0.2% Triton X-100 in PBS for 5 minutes. The cells were then washed again by immersing the slide twice for 5 minutes in PBS and blotting the slide on paper towel between washes. 25 μl of equilibration buffer [200 mM potassium cacodylate (pH 6.6), 25 mM. Tris-HCl (pH 6.6), 0.2 mM dithiothreitol, 0.25 mg/ml bovine serum albumin, and 2.5 mM cobalt chloride] was added per well and incubated for 5 to 10 minutes. […] Any cells with brightly stained or fragmented nuclei were scored as apoptotic. […]

[4] = system: RKO cells; test: Western blots of RKO cells treated with Actinomycin D; settings: 0.25 μg/ml Actinomycin D for 0, 3, 7, 24, and 48 hours
Protocol: FIG. 43 provides Western blots of protein extracted from RKO cells treated with 0.25 μg/ml Actinomycin D for 0, 3, 7, 24, and 48 hours. The top panel depicts a Western blot using anti-p53 as the primary antibody. The middle panel depicts a Western blot using anti-apoptosis-specific eIF-5A as the primary antibody.

[5] = system: lamina cribrosa cell line #506; settings: 48 hours; Hoescht staining
Protocol: FIG. 83 is a graph showing percent apoptosis of lamina cribrosa cell line #506 in response to treatment with camptothecin and TNF-α. Lamina cribrosa cell line #506 cells were seeded at 40,000 cells per well onto an 8-well culture slide. Three days later the confluent LC cells were treated with either 10 ng/ml TNF-α, 50 μM camptothecin, or 10 ng/ml TNF-α plus 50 μM camptothecin. An equivalent volume of DMSO, a vehicle control for camptothecin, was added to the untreated control cells. The cells were stained with Hoescht 33258 48 hours after treatment and viewed by fluorescence microscopy using a UV filter. Cells with brightly stained condensed or fragmented nuclei were counted as apoptotic.
Apoptosis was induced in lamina cribrosa cells using a combination of 50 μM camptothecin (Sigma) and 10 ng/ml TNF-α (Leinco Technologies).
Since TNF-α is believed to play an important role during the glaucomatous process, the susceptibility of LC cells to the cytotoxic effects of TNF-α was examined. Confluent LC cells were exposed to either camptothecin, TNF-α, or a combination of camptothecin and TNF-α for 48 hours (FIG. 83).

Q: “interferon gamma: interferon gamma (Roche Diagnostics)” was tested. Which “up-regulation of apoptosis-specific eIF-5A” value [1] did it give?
A: 4 fold

Q: With “siRNA #3: siRNA against human apoptosis-specific eIF-5A (SEQ ID NO:32); target 5′ AAGGTCCATCTGGTTGGTATT 3′ (SEQ ID NO: 83) (AAGGUCCAUCUGGUUGGUAUUGA; unmodified RNA; listed as Homo sapiens)” as the molecule, how does the “reduce apoptosis of LC cells” value [2] read?
A: 50%

Q: For “siRNA #4: siRNA against human apoptosis-specific eIF-5A (SEQ ID NO:33); target 5′ AAGCTGGACTCCTCCTACACA 3′ (SEQ ID NO: 84) (AAGCTGGACTCCTCCTACACAAT; listed as DNA, chemistry not fully specified; listed as Homo sapiens)”, which “reduce apoptosis of LC cells” value [2] is on record?
A: 69%

Q: What about the “protection from apoptosis relative to the control siRNA” value ([3]; TUNEL) of the same molecule?
A: greater than 60%

Q: Which “apoptosis-specific eIF-5A protein” value [4] does the source give for `Cc1c2oc3c(C)ccc(C(=O)N[C@@H]4C(=O)N[C@H](C(C)C)C(=O)N5CCC[C@H]5C(=O)N(C)CC(=O)N(C)[C@@H](C(C)C)C(=O)O[C@@H]4C)c3nc-2c(C(=O)N[C@@H]2C(=O)N[C@H](C(C)C)C(=O)N3CCC[C@H]3C(=O)N(C)CC(=O)N(C)[C@@H](C(C)C)C(=O)O[C@@H]2C)c(N)c1=O` [Actinomycin D] (I: T[dV]P[Sar][NMeV] / II: T[dV]P[Sar][NMeV]; ester I:1-I:C, II:1-II:C; linker I:N-II:N via Actinocin(9to1)) here?
A: upregulated

Q: What about the p53 protein [4] of the same molecule?
A: upregulated

Q: With “siRNA #2: siRNA against human apoptosis-specific eIF-5A (SEQ ID NO:31); target 5′ AAGATCGTCGAGATGTCTACT 3′ (SEQ ID NO: 82) (AAGAUCGUCGAGAUGUCUACUUC; unmodified RNA; listed as Homo sapiens)” as the molecule, how does the “reduce apoptosis of LC cells” value [2] read?
A: 35%

Q: Which “cytotoxic to LC cells” value [5] does the source give for TNF-α here?
A: not cytotoxic

Q: With “siRNA #5: control siRNA (SEQ ID NO:34) with the reverse sequence of siRNA #1; does not target eIF5A (AAAGTCGACCTTCAGTAAGGATT; listed as DNA, chemistry not fully specified; listed as Homo sapiens)” as the molecule, how does the “LC cells positive for TUNEL staining” value ([3]; 3 days after transfection) read?
A: 46%
